According to patent publication US4843062A, “N-acyl-N-napthoylglycines as aldose reductase inhibitors” (American Home Products Corporation, priority 1987, dated 1989):
Where two headings read alike, the source gives them in different places.

Experiments:
[1] = target: T1, aldose reductase (Bos taurus, UniProt P16116); test: Aldose reductase inhibition in vitro (enzyme preparation from bovine lens, modified Hayman and Kinoshita procedure); assay type: biochemical; conditions: for inhibition at 10 µM / inhibition at 1 µM: read-out: % Inhibition IN VITRO; for inhibition at 0.1 µM / % Inhibition IN VITRO: 10^-7 M
T1 construct: preparation of the enzyme from bovine lens; from tissue; host or cells: bovine lens
Procedure: (§1) Only two minor reagent changes were made: (a) The rinsing mixture was an aqueous 5% (w/v) trichloroacetic acid solution and (b) the stock solution was prepared by dissolving 25 mg of dulcitol in 100 mL of an aqueous trichloroacetic acid solution. [N.B.: For each experiment the average value found in the tissue from rats fed the glucose diet was subtracted from the individual values found in the corresponding tissue in galactose-fed rats to obtain the amount of polyol accumulated.] […] In the present case the procedure of Hayman and Kinoshita was modified in that the final chromatography step was omitted in the preparation of the enzyme from bovine lens.

[2] = test system: lens (galactitol accumulation); test: Galactitol (dulcitol) accumulation in lens of galactosemic rats; assay type: in vivo, rat (male, Sprague-Dawley); conditions: four days
Description: (§2) The aldose reductase inhibiting property of the compounds of this invention and the utilization of the compounds in preventing, diminishing and alleviating diabetic complications are demonstrable in experiments using galactosemic rats, see Dvornik et al, Science, 182, 1146 (1973). Such experiments are exemplified hereinbelow after the listing of the following general comments pertaining to these experiments.
(§3) (a) Four or more groups of six male rats, 50-70 g, Sprague-Dawley strain, were used. The first group, the control group, was fed a mixture of laboratory chow (rodent Laboratory Chow, Purina) and glucose at 20% (w/w %) concentration. The untreated galactosemic group and the drug-treated groups were fed a similar diet in which galactose is substituted for glucose. The test compound was either admixed to the diet or administered by gavage. In experiments involving compound administration in the diet, the average dose administered was calculated from the actual food intake of the animals in each group. The concentration of galactose in the diet of the treated groups was the same as that for the untreated galactosemic group.
(§4) (b) After four days, the animals were killed by decapitation. The eyeballs were removed and punctured with a razor blade; the freed lenses were rolled gently on filter paper and weighed. The sciatic nerves were dissected as completely as possible and weighed. Both tissues when frozen can be kept up to two weeks before being analyzed for galactitol.
(c) The polyol determination was performed by a modification of the procedure of M. Kraml and L. Cosyns, Clin. Biochem., 2,373 (1969). Only two minor reagent changes were made: (a) The rinsing mixture was an aqueous 5% (w/v) trichloroacetic acid solution and (b) the stock solution was prepared by dissolving 25 mg of dulcitol in 100 mL of an aqueous trichloroacetic acid solution. [N.B.: For each experiment the average value found in the tissue from rats fed the glucose diet was subtracted from the individual values found in the corresponding tissue in galactose-fed rats to obtain the amount of polyol accumulated.] The aldose reductase inhibiting effects of the compounds of formula (I) were also tested by employing an in vitro testing procedure similar to that described by S. Hayman and J. H. Kinoshita, J. Biol. Chem., 240,877 (1965). In the present case the procedure of Hayman and Kinoshita was modified in that the final chromatography step was omitted in the preparation of the enzyme from bovine lens.
(§5) The figures under L, N, and D represent the percentage decrease of galactitol accumulation in the tissues of the lens, sciatic nerve, and diaphragm, respectively, for treated rats as compared to untreated rats.

[3] = test system: sciatic nerve (galactitol accumulation); test: Galactitol (dulcitol) accumulation in sciatic nerve of galactosemic rats; assay type: in vivo, rat (male, Sprague-Dawley); conditions: four days
Description: (§6) Such experiments are exemplified hereinbelow after the listing of the following general comments pertaining to these experiments.
as §3, with “The untreated galactosemic group and the drug-treated groups were fed a similar diet in which galactose is substituted for glucose.” left out
as §4
as §1, with “(c) The polyol determination was performed by a modification of the procedure of M. Kraml and L. Cosyns, Clin. Biochem., 2,373 (1969). Only” for “Only”
as §5

[4] = test system: diaphragm (galactitol accumulation); test: Galactitol (dulcitol) accumulation in diaphragm of galactosemic rats; assay type: in vivo, rat (male, Sprague-Dawley); conditions: four days
Description: as §6
as §3, with “The untreated galactosemic group and the drug-treated groups were fed a similar diet in which galactose is substituted for glucose.” left out
as §1, with “(c) The polyol determination was performed by a modification of the procedure of M. Kraml and L. Cosyns, Clin. Biochem., 2,373 (1969). Only” for “Only”
as §5

[5] = test system: rats fed galactose; test: Galactosemic rat experiments; assay type: in vivo, rat (male, Sprague-Dawley)
Description: as §2, §3
(b) After four days, the animals were killed by decapitation. […] Both tissues when frozen can be kept up to two weeks before being analyzed for galactitol. […]

Compound: COC(=O)N(CC(=O)O)C(=O)c1cccc2c(Br)cccc12 [Example 12]
- inhibition at 10 µM ([1]; 10^-5 M): 85%
- inhibition at 1 µM ([1]; 10^-6 M): 54%
- inhibition at 0.1 µM [1]: 10%
- % Lowering dulcitol accumulation IN VIVO (%)L ([2]; 102 mg/kg): N.S.
- % Lowering dulcitol accumulation IN VIVO (%)N ([3]; 102 mg/kg): N.S.

Compound: COc1ccc2c(C(=O)N(C=O)CC(=O)O)cccc2c1C(F)(F)F [Example 8, N-Fromyl-N-[[6-methoxy-5-(trifluoromethyl)-1-naphthalenyl]carbonyl]glycine]
- inhibition at 10 µM ([1]; 10^-5 M): 95%
- inhibition at 0.1 µM [1]: 89%
- inhibition at 1 µM [1]: 96%
- % Lowering dulcitol accumulation IN VIVO (%)N ([3]; 107 mg/kg): 51%

Compound: COc1ccc2c(C(=O)N(CC(=O)O)C(=O)OCC(C)(C)C)cccc2c1C(F)(F)F [Example 5]
- inhibition at 10 µM ([1]; 10^-5 M): 90%
- inhibition at 1 µM ([1]; 10^-6 M): 64%
- inhibition at 0.1 µM [1]: 18%
- % Lowering dulcitol accumulation IN VIVO (%)L ([2]; 105 mg/kg): N.S.
- % Lowering dulcitol accumulation IN VIVO (%)N ([3]; 105 mg/kg): N.S.
- % Lowering dulcitol accumulation IN VIVO (%)D ([4]; 105 mg/kg): N.S.

Compound: COC(=O)N(CC(=O)O)C(=O)c1cccc2c(C(F)(F)F)c(OC)ccc12 [Example 2, N-[[6-Methoxy-5-(trifluoromethyl)-1-naphthalenyl]carbonyl]-N-[(methoxy)carbonyl]glycine]
- inhibition at 10 µM ([1]; 10^-5 M): 98%
- inhibition at 1 µM ([1]; 10^-6 M): 97%
- inhibition at 0.1 µM [1]: 82%
- % Lowering dulcitol accumulation IN VIVO (%)L ([2]; 48 mg/kg): N.S.
- % Lowering dulcitol accumulation IN VIVO (%)N ([3]; 48 mg/kg): 70%
- results compared with tolrestat ([5]; 48 mg/kg/day versus tolrestat at 9 mg/kg/day): comparable results

Compound: O=C(O)CN(C(=O)OCc1ccccc1)C(=O)c1cccc2c(Br)cccc12 [Example 13]
- inhibition at 10 µM ([1]; 10^-5 M): 87%
- inhibition at 1 µM ([1]; 10^-6 M): 57%
- inhibition at 0.1 µM [1]: 12%

Compound: COc1ccc2c(C(=O)N(CC(=O)O)C(=O)N(C)C)cccc2c1C(F)(F)F [Example 11, N-[(Dimethylamino)carbonyl]-N-[[6-methoxy-5-(trifluoromethyl)-1-naphthalenyl]carbonyl]glycine]
- inhibition at 10 µM ([1]; 10^-5 M): 22%
- inhibition at 1 µM ([1]; 10^-6 M): 3%
- % Inhibition IN VITRO [1]: N.S.

Compound: COc1ccc2c(C(=O)N(CC(=O)O)C(=O)OCc3ccc(Cl)c([N+](=O)[O-])c3)cccc2c1C(F)(F)F [Example 7]
- inhibition at 10 µM ([1]; 10^-5 M): 95%
- inhibition at 1 µM ([1]; 10^-6 M): 89%
- inhibition at 0.1 µM [1]: 49%
- % Lowering dulcitol accumulation IN VIVO (%)L ([2]; 107 mg/kg): N.S.
- % Lowering dulcitol accumulation IN VIVO (%)N ([3]; 107 mg/kg): N.S.
- % Lowering dulcitol accumulation IN VIVO (%)D ([4]; 107 mg/kg): N.S.

Compound: CCCOC(=O)N(CC(=O)O)C(=O)c1cccc2c(C(F)(F)F)c(OC)ccc12 [Example 3]
- inhibition at 0.04 µM ([1]; 4 × 10^-8 M): 48%
- inhibition at 10 µM ([1]; 10^-5 M): 95%
- inhibition at 1 µM ([1]; 10^-6 M): 90%
- inhibition at 0.1 µM [1]: 81%
- % Lowering dulcitol accumulation IN VIVO (%)L ([2]; 48 mg/kg): N.S.
- % Lowering dulcitol accumulation IN VIVO (%)N ([3]; 48 mg/kg): N.S.
- % Lowering dulcitol accumulation IN VIVO (%)D ([4]; 48 mg/kg): N.S.

Compound: O=CN(CC(=O)O)C(=O)c1cccc2c(Br)cccc12 [Example 14]
- inhibition at 10 µM ([1]; 10^-5 M): 90%
- inhibition at 1 µM ([1]; 10^-6 M): 73%
- inhibition at 0.1 µM [1]: 22%
- % Lowering dulcitol accumulation IN VIVO (%)L ([2]; 104 mg/kg): N.S.
- % Lowering dulcitol accumulation IN VIVO (%)N ([3]; 104 mg/kg): N.S

Compound: CC(=O)N(CC(=O)O)C(=O)c1cccc2c(Br)cccc12 [Example 15]
- inhibition at 10 µM ([1]; 10^-5 M): 82%
- inhibition at 1 µM ([1]; 10^-6 M): 41%
- inhibition at 0.1 µM [1]: 7%
- % Lowering dulcitol accumulation IN VIVO (%)L ([2]; 112 mg/kg): N.S.
- % Lowering dulcitol accumulation IN VIVO (%)N ([3]; 112 mg/kg): N.S.
- % Lowering dulcitol accumulation IN VIVO (%)D ([4]; 112 mg/kg): N.S.

Compound: COc1ccc2c(C(=O)N(CC(=O)O)C(C)=O)cccc2c1C(F)(F)F [Example 9]
- inhibition at 1 µM ([1]; 10^-6 M): 91%
- inhibition at 0.1 µM [1]: 61%
- inhibition at 10 µM [1]: 96%
- % Lowering dulcitol accumulation IN VIVO (%)L ([2]; 100 mg/kg): N.S.
- % Lowering dulcitol accumulation IN VIVO (%)N ([3]; 100 mg/kg): 36%

Compound: COc1ccc2c(C(=O)N(CC(=O)O)C(=O)OCc3ccccc3)cccc2c1C(F)(F)F
- inhibition at 10 µM ([1]; 10^-5 M): 95%
- inhibition at 1 µM ([1]; 10^-6 M): 89%
- inhibition at 0.1 µM [1]: 66%
- % Lowering dulcitol accumulation IN VIVO (%)L ([2]; 67 mg/kg): N.S.
- % Lowering dulcitol accumulation IN VIVO (%)N ([3]; 67 mg/kg): N.S.
- % Lowering dulcitol accumulation IN VIVO (%)D ([4]; 67 mg/kg): N.S.

Compound: COc1ccc2c(C(=O)N(CC(=O)O)C(=O)c3ccccc3)cccc2c1C(F)(F)F [Example 10, N-Benzoyl-N-[[6-methoxy-5-(trifluoromethyl)-1-naphthalenyl]carbonyl]glycine]
- inhibition at 10 µM ([1]; 10^-5 M): 90%
- inhibition at 1 µM ([1]; 10^-6 M): 62%
- inhibition at 0.1 µM [1]: 15%
- % Lowering dulcitol accumulation IN VIVO (%)L ([2]; 50 mg/kg): N.S.
- % Lowering dulcitol accumulation IN VIVO (%)N ([3]; 50 mg/kg): N.S.
- % Lowering dulcitol accumulation IN VIVO (%)D ([4]; 50 mg/kg): N.S.

Compound: O=C(O)CN(C(=O)c1ccccc1)C(=O)c1cccc2c(Br)cccc12 [Example 16]
- inhibition at 10 µM ([1]; 10^-5 M): 83%
- inhibition at 1 µM ([1]; 10^-6 M): 58%
- inhibition at 0.1 µM [1]: 10%
- % Lowering dulcitol accumulation IN VIVO (%)L ([2]; 111 mg/kg): N.S.
- % Lowering dulcitol accumulation IN VIVO (%)N ([3]; 111 mg/kg): N.S.
- % Lowering dulcitol accumulation IN VIVO (%)D ([4]; 111 mg/kg): N.S.

Compound: COC(=O)N(CC(=O)O)C(=S)c1cccc2c(C(F)(F)F)c(OC)ccc12 [Example 18a, N-[[6-Methoxy-5-(trifluoromethyl)-1-naphthalenyl]thioxomethyl]-N-[(methoxy)carbonyl]glycine]
- inhibition at 1 µM ([1]; 10^-6 M): 88%
- inhibition at 0.1 µM [1]: 29%
- inhibition at 10 µM [1]: 94%
- % Lowering dulcitol accumulation IN VIVO (%)L ([2]; 51 mg/kg): N.S.
- % Lowering dulcitol accumulation IN VIVO (%)N ([3]; 51 mg/kg): N.S.

Compound: CN(C)C(=O)N(CC(=O)O)C(=O)c1cccc2c(Br)cccc12 [Example 17]
- inhibition at 10 µM ([1]; 10^-5 M): 23%
- inhibition at 1 µM ([1]; 10^-6 M): 4%
- % Inhibition IN VITRO [1]: N.S.

Compound: COc1ccc2c(C(=O)N(CC(=O)O)C(=O)OC(C)C)cccc2c1C(F)(F)F [Example 4]
- % Lowering dulcitol accumulation IN VIVO (%)L ([2]; dose not given (N.S.)): N.S.
- % Lowering dulcitol accumulation IN VIVO (%)N ([3]; dose not given (N.S.)): N.S.
- % Lowering dulcitol accumulation IN VIVO (%)D ([4]; dose not given (N.S.)): N.S.

Compound: COc1ccc2c(C(=S)N(C)CC(=O)O)cccc2c1C(F)(F)F [Example 18b, N-[[6-methoxy-5-(trifluoromethyl)-1-napthalenyl]thioxomethyl]-N-methyglycine, reference compound]
- % Lowering dulcitol accumulation IN VIVO (%)L ([2]; 9 mg/kg): N.S.

Compound: CCOC(=O)N(CC(=O)O)C(=O)c1cccc2c(C(F)(F)F)c(OC)ccc12 [Example 1, N-[[6-Methoxy-5-(trifluoromethyl)-1-naphthalenyl]carbonyl]-N-[(ethoxy)carbonyl]glycine]
- inhibition at 10 µM ([1]; 10^-5 M): 97%
- inhibition at 0.1 µM [1]: 47%
- inhibition at 1 µM [1]: 94%
- % Lowering dulcitol accumulation IN VIVO (%)N ([3]; 57 mg/kg): 56%
- % Lowering dulcitol accumulation IN VIVO (%)N ([3]; 97 mg/kg): 90%
- results compared with tolrestat ([5]; 57 mg/kg/day versus tolrestat at 9 mg/kg/day): comparable results
